Measurements published in PubChem BioAssay (NCI).
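Tested at 5 concentrations; 48 h exposure; 96-well plates; endpoints linearly interpolated, else capped at highest concentration. The concentration for 50% growth inhibition is given as GI50. TGI: concentration producing complete growth inhibition.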

Key:
Test in all cases: DTP human tumour cell line panel, 48 h
786-0 renal = system: 786-0 renal
A498 renal = system: A498 renal
A549 NSCLC = system: A549 NSCLC
ACHN renal = system: ACHN renal
BT-549 breast = system: BT-549 breast
CAKI-1 renal = system: CAKI-1 renal
CCRF-CEM leukemia = system: CCRF-CEM leukemia
COLO 205 colon = system: COLO 205 colon
DU-145 prostate = system: DU-145 prostate
EKVX NSCLC = system: EKVX NSCLC
HCC-2998 colon = system: HCC-2998 colon
HCT-116 colon = system: HCT-116 colon
HCT-15 colon = system: HCT-15 colon
HL-60(TB) leukemia = system: HL-60(TB) leukemia
HOP-92 NSCLC = system: HOP-92 NSCLC
HS 578T breast = system: HS 578T breast
HT29 colon = system: HT29 colon
IGROV1 ovarian = system: IGROV1 ovarian
K-562 leukemia = system: K-562 leukemia
KM12 colon = system: KM12 colon
LOX IMVI melanoma = system: LOX IMVI melanoma
MALME-3M melanoma = system: MALME-3M melanoma
MCF7 breast = system: MCF7 breast
MDA-MB-231 breast = system: MDA-MB-231 breast
MDA-MB-435 = system: MDA-MB-435
MOLT-4 leukemia = system: MOLT-4 leukemia
NCI-H226 lung = system: NCI-H226 lung
NCI-H23 lung = system: NCI-H23 lung
NCI-H460 lung = system: NCI-H460 lung
NCI/ADR-RES ovarian = system: NCI/ADR-RES ovarian
OVCAR-4 ovarian = system: OVCAR-4 ovarian
OVCAR-8 ovarian = system: OVCAR-8 ovarian
PC-3 prostate = system: PC-3 prostate
RPMI-8226 leukemia = system: RPMI-8226 leukemia
RXF 393 renal = system: RXF 393 renal
SF-268 CNS = system: SF-268 CNS
SF-295 CNS = system: SF-295 CNS
SF-539 CNS = system: SF-539 CNS
SK-MEL-2 melanoma = system: SK-MEL-2 melanoma
SK-MEL-28 melanoma = system: SK-MEL-28 melanoma
SK-MEL-5 melanoma = system: SK-MEL-5 melanoma
SK-OV-3 ovarian = system: SK-OV-3 ovarian
SN12C renal = system: SN12C renal
SNB-19 CNS = system: SNB-19 CNS
SNB-75 CNS = system: SNB-75 CNS
SR leukemia = system: SR leukemia
SW-620 colon = system: SW-620 colon
T-47D breast = system: T-47D breast
TK-10 renal = system: TK-10 renal
U251 CNS = system: U251 CNS
UACC-257 melanoma = system: UACC-257 melanoma
UACC-62 melanoma = system: UACC-62 melanoma
UO-31 renal = system: UO-31 renal
HOP-62 NSCLC = system: HOP-62 NSCLC
M14 melanoma = system: M14 melanoma
NCI-H522 lung = system: NCI-H522 lung
OVCAR-3 ovarian = system: OVCAR-3 ovarian
OVCAR-5 ovarian = system: OVCAR-5 ovarian

Q: What does the source list for Cc1cc([C@H](C#N)c2nc3ccccc3[nH]2)nc(Cl)n1?
A: TGI (786-0 renal): > 100000 nM; TGI (A498 renal): > 100000 nM; TGI (A549 NSCLC): > 100000 nM; TGI (ACHN renal): > 100000 nM; TGI (BT-549 breast): > 100000 nM; TGI (CAKI-1 renal): > 100000 nM; TGI (CCRF-CEM leukemia): > 100000 nM; TGI (COLO 205 colon): > 100000 nM; TGI (DU-145 prostate): > 100000 nM; TGI (EKVX NSCLC): > 100000 nM; TGI (HCC-2998 colon): 42800 nM; TGI (HCT-116 colon): > 100000 nM; TGI (HCT-15 colon): > 100000 nM; TGI (HL-60(TB) leukemia): > 100000 nM; TGI (HOP-92 NSCLC): > 100000 nM; TGI (HS 578T breast): > 100000 nM; TGI (HT29 colon): > 100000 nM; TGI (IGROV1 ovarian): > 100000 nM; TGI (K-562 leukemia): > 100000 nM; TGI (KM12 colon): 28100 nM; TGI (LOX IMVI melanoma): > 100000 nM; TGI (MALME-3M melanoma): > 100000 nM; TGI (MCF7 breast): > 100000 nM; TGI (MDA-MB-231 breast): > 100000 nM; TGI (MDA-MB-435): > 100000 nM; TGI (MOLT-4 leukemia): > 100000 nM; TGI (NCI-H226 lung): > 100000 nM; TGI (NCI-H23 lung): > 100000 nM; TGI (NCI-H460 lung): 63500 nM; TGI (NCI/ADR-RES ovarian): > 100000 nM; TGI (OVCAR-4 ovarian): > 100000 nM; TGI (OVCAR-8 ovarian): > 100000 nM; TGI (PC-3 prostate): > 100000 nM; TGI (RPMI-8226 leukemia): > 100000 nM; TGI (RXF 393 renal): > 100000 nM; TGI (SF-268 CNS): > 100000 nM; TGI (SF-295 CNS): > 100000 nM; TGI (SF-539 CNS): > 100000 nM; TGI (SK-MEL-2 melanoma): > 100000 nM; TGI (SK-MEL-28 melanoma): > 100000 nM; TGI (SK-MEL-5 melanoma): > 100000 nM; TGI (SK-OV-3 ovarian): > 100000 nM; TGI (SN12C renal): > 100000 nM; TGI (SNB-19 CNS): > 100000 nM; TGI (SNB-75 CNS): 93400 nM; TGI (SR leukemia): > 100000 nM; TGI (SW-620 colon): > 100000 nM; TGI (T-47D breast): 89500 nM; TGI (TK-10 renal): > 100000 nM; TGI (U251 CNS): > 100000 nM; TGI (UACC-257 melanoma): 71400 nM; TGI (UACC-62 melanoma): 65300 nM; TGI (UO-31 renal): > 100000 nM

Q: What does the source list for Cc1nc2sc(C(=O)Nc3cccc(Cl)c3C)c(N)c2cc1C(=O)/C=C/c1ccccc1?
A: GI50 (786-0 renal): 232 nM; TGI (786-0 renal): 907 nM; GI50 (A498 renal): 298 nM; TGI (A498 renal): 1400 nM; GI50 (A549 NSCLC): 476 nM; TGI (A549 NSCLC): 6680 nM; GI50 (ACHN renal): 327 nM; TGI (ACHN renal): 1090 nM; GI50 (BT-549 breast): 525 nM; TGI (BT-549 breast): 1720 nM; GI50 (CAKI-1 renal): 417 nM; TGI (CAKI-1 renal): 1170 nM; GI50 (CCRF-CEM leukemia): 176 nM; TGI (CCRF-CEM leukemia): > 50000 nM; GI50 (COLO 205 colon): 979 nM; TGI (COLO 205 colon): 2390 nM; GI50 (DU-145 prostate): 769 nM; TGI (DU-145 prostate): 2840 nM; GI50 (EKVX NSCLC): 1120 nM; TGI (EKVX NSCLC): 5690 nM; GI50 (HCC-2998 colon): 827 nM; TGI (HCC-2998 colon): 1570 nM; GI50 (HCT-116 colon): 186 nM; TGI (HCT-116 colon): 707 nM; GI50 (HCT-15 colon): 183 nM; TGI (HCT-15 colon): 817 nM; GI50 (HL-60(TB) leukemia): 575 nM; TGI (HL-60(TB) leukemia): 2130 nM; GI50 (HOP-62 NSCLC): 339 nM; TGI (HOP-62 NSCLC): 1730 nM; GI50 (HOP-92 NSCLC): 371 nM; TGI (HOP-92 NSCLC): 2110 nM; GI50 (HS 578T breast): 380 nM; TGI (HS 578T breast): > 13500 nM; GI50 (HT29 colon): 178 nM; TGI (HT29 colon): 888 nM; GI50 (IGROV1 ovarian): 316 nM; TGI (IGROV1 ovarian): 1100 nM; GI50 (K-562 leukemia): 251 nM; TGI (K-562 leukemia): > 50000 nM; GI50 (KM12 colon): 479 nM; TGI (KM12 colon): 1500 nM; GI50 (LOX IMVI melanoma): 188 nM; TGI (LOX IMVI melanoma): 711 nM; GI50 (M14 melanoma): 239 nM; TGI (M14 melanoma): 1350 nM; GI50 (MALME-3M melanoma): 315 nM; TGI (MALME-3M melanoma): 4470 nM; GI50 (MCF7 breast): 192 nM; TGI (MCF7 breast): 3320 nM; GI50 (MDA-MB-231 breast): 786 nM; TGI (MDA-MB-231 breast): 2260 nM; GI50 (MDA-MB-435): 111 nM; TGI (MDA-MB-435): 263 nM; GI50 (MOLT-4 leukemia): 760 nM; TGI (MOLT-4 leukemia): > 50000 nM; GI50 (NCI-H226 lung): 483 nM; TGI (NCI-H226 lung): 1680 nM; GI50 (NCI-H23 lung): 755 nM; TGI (NCI-H23 lung): 2440 nM; GI50 (NCI-H460 lung): 424 nM; TGI (NCI-H460 lung): 1740 nM; GI50 (NCI-H522 lung): 172 nM; TGI (NCI-H522 lung): 999 nM; GI50 (NCI/ADR-RES ovarian): 176 nM; TGI (NCI/ADR-RES ovarian): 656 nM; GI50 (OVCAR-3 ovarian): 199 nM; TGI (OVCAR-3 ovarian): 737 nM; GI50 (OVCAR-4 ovarian): 1230 nM; TGI (OVCAR-4 ovarian): 7030 nM; GI50 (OVCAR-5 ovarian): 714 nM; TGI (OVCAR-5 ovarian): 1740 nM; GI50 (OVCAR-8 ovarian): 543 nM; TGI (OVCAR-8 ovarian): > 14300 nM; GI50 (PC-3 prostate): 330 nM; TGI (PC-3 prostate): 1540 nM; GI50 (RPMI-8226 leukemia): 140 nM; TGI (RPMI-8226 leukemia): 465 nM; GI50 (RXF 393 renal): 206 nM; TGI (RXF 393 renal): 801 nM; GI50 (SF-268 CNS): 938 nM; TGI (SF-268 CNS): 5150 nM; GI50 (SF-295 CNS): 446 nM; TGI (SF-295 CNS): 2100 nM; GI50 (SF-539 CNS): 595 nM; TGI (SF-539 CNS): 1430 nM; GI50 (SK-MEL-2 melanoma): 304 nM; TGI (SK-MEL-2 melanoma): 8610 nM; GI50 (SK-MEL-28 melanoma): 641 nM; TGI (SK-MEL-28 melanoma): 2880 nM; GI50 (SK-MEL-5 melanoma): 572 nM; TGI (SK-MEL-5 melanoma): 1430 nM; GI50 (SK-OV-3 ovarian): 1440 nM; TGI (SK-OV-3 ovarian): 13000 nM; GI50 (SN12C renal): 532 nM; TGI (SN12C renal): 1830 nM; GI50 (SNB-19 CNS): 651 nM; TGI (SNB-19 CNS): 3110 nM; GI50 (SNB-75 CNS): 217 nM; TGI (SNB-75 CNS): 5450 nM; GI50 (SR leukemia): 188 nM; GI50 (SW-620 colon): 206 nM; TGI (SW-620 colon): 1320 nM; GI50 (T-47D breast): 767 nM; TGI (T-47D breast): 2400 nM; GI50 (TK-10 renal): 1060 nM; TGI (TK-10 renal): 4540 nM; GI50 (U251 CNS): 252 nM; TGI (U251 CNS): 981 nM; GI50 (UACC-257 melanoma): 1500 nM; TGI (UACC-257 melanoma): 12600 nM; GI50 (UACC-62 melanoma): 303 nM; TGI (UACC-62 melanoma): 1910 nM; GI50 (UO-31 renal): 438 nM; TGI (UO-31 renal): 1100 nM
